Measurements as given in ChEMBL document CHEMBL4138105, “LL-37-derived short antimicrobial peptide KR-12-a5 and its d-amino acid substituted analogs with cell selectivity, anti-biofilm activity, synergistic effect with conventional antibiotics, and anti-inflammatory activity” (Eur J Med Chem, 2017).
The source made the active and inactive calls.

Tests used:
Staphylococcus aureus [1] = test: Potency index, ratio of LL-37 MIC to compound MIC for methicillin resistant Staphylococcus aureus CCARM 3090; format: functional
Escherichia coli [2] = test: Antibacterial activity against Escherichia coli KCTC 1682 after 24 hrs; format: functional; conditions: KCTC 1682, 24 h
NIH3T3 = test: Cytotoxicity against mouse NIH/3T3 cells up to 128 uM after 48 hrs by MTT assay; format: cell-based; conditions: nih3t3, 48 h
Pseudomonas aeruginosa [3] = test: Potency index, ratio of melittin MIC to compound MIC for multidrug-resistant Pseudomonas aeruginosa CCARM 2095; format: functional
Staphylococcus aureus [4] = test: Potency index, ratio of LL-37 MIC to compound MIC for methicillin resistant Staphylococcus aureus CCARM 3095; format: functional
Staphylococcus aureus [5] = test: Antibacterial activity against Staphylococcus aureus KCTC 1621 after 24 hrs; format: functional; conditions: KCTC 1621, 24 h
RAW264.7 [6] = test: Anti-inflammatory activity in mouse RAW264.7 cells assessed as reduction in LPS-induced nitric oxide production at 10 to 20 uM after 24 hrs by Griess assay; format: functional, cell-based
Lipid bilayer = test: Binding affinity to EYPE/EYPG small unilamellar vesicles assessed as intrinsic tryptophan acrylamide quenching constant by fluorescence assay (reference value: 5.95 to 7.56 /M)
Enterococcus faecium [7] = test: Potency index, ratio of melittin MIC to compound MIC for Vancomycin-resistant Enterococcus faecium ATCC 51559; format: functional
Pseudomonas aeruginosa [8] = test: Antibacterial activity against Pseudomonas aeruginosa KCTC 1637 after 24 hrs; format: functional; conditions: KCTC 1637, 24 h
Staphylococcus aureus [9] = test: Potency index, ratio of melittin MIC to compound MIC for methicillin resistant Staphylococcus aureus CCARM 3090; format: functional
RAW264.7 [10] = test: Anti-inflammatory activity in mouse RAW264.7 cells assessed as reduction in LPS-induced IL-6 mRNA expression at 10 uM after 3 hrs by RT-PCR analysis; format: functional, cell-based
Bacillus subtilis = test: Antibacterial activity against Bacillus subtilis KCTC 3068 after 24 hrs; format: functional; conditions: KCTC 3068, 24 h
Staphylococcus aureus [11] = test: Antibacterial activity against Staphylococcus aureus KCTC 1621 in presence of 2.5 mM CaCl2 after 24 hrs; format: functional; conditions: KCTC 1621, 24 h
RAW264.7 [12] = test: Anti-inflammatory activity in mouse RAW264.7 cells assessed as reduction in LPS-induced TNF-alpha mRNA expression at 10 uM after 3 hrs by RT-PCR analysis; format: functional, cell-based
Pseudomonas aeruginosa [13] = test: Potency index, ratio of LL-37 MBIC90 to compound MBIC90 for antibiofilm activity against multidrug-resistant Pseudomonas aeruginosa CCARM 2095; format: functional
Staphylococcus aureus [14] = test: Antibacterial activity against Staphylococcus aureus KCTC 1621 in presence of 20% human serum after 24 hrs; format: functional; conditions: KCTC 1621, 24 h
Escherichia coli [15] = test: Antibacterial activity against Escherichia coli KCTC 1682 in presence of 4.5 mM KCl after 24 hrs; format: functional; conditions: KCTC 1682, 24 h
Staphylococcus aureus [16] = test: Antibacterial activity against Staphylococcus aureus KCTC 1621 in presence of 4.5 mM KCl after 24 hrs; format: functional; conditions: KCTC 1621, 24 h
Escherichia coli [17] = test: Antibacterial activity against Escherichia coli KCTC 1682 in presence of 6 uM NH4Cl after 24 hrs; format: functional; conditions: KCTC 1682, 24 h
Pseudomonas aeruginosa [18] = test: Potency index, ratio of LL-37 MIC to compound MIC for multidrug-resistant Pseudomonas aeruginosa CCARM 2109; format: functional
Erythrocyte = test: Hemolytic activity in human RBC after 1 hr; format: ADME, cell-based
Escherichia coli [19] = test: Antibacterial activity against Escherichia coli KCTC 1682 in presence of 150 mM NaCl after 24 hrs; format: functional; conditions: KCTC 1682, 24 h
Pseudomonas aeruginosa [20] = test: Synergistic antibacterial activity against multidrug-resistant Pseudomonas aeruginosa CCARM 2095 after 72 hrs in presence of ciprofloxacin by chequerboard assay; format: functional
Staphylococcus aureus [21] = test: Ratio of MIC for Staphylococcus aureus KCTC 1621 in presence of 20% human serum to MIC for Escherichia coli KCTC 1682 in presence of 20% human serum; format: functional
RAW264.7 [22] = test: Anti-inflammatory activity in mouse RAW264.7 cells assessed as reduction in LPS-induced IL-6 production at 10 to 20 uM preincubated for 1 hr followed by LPS stimulation measured after 6 hrs by ELISA; format: functional, cell-based
RAW264.7 [23] = test: Cytotoxicity against mouse RAW264.7 cells up to 128 uM after 48 hrs by MTT assay; format: cell-based; conditions: raw264.7, 48 h
RAW264.7 [24] = test: Anti-inflammatory activity in mouse RAW264.7 cells assessed as reduction in LPS-induced MCP-1 production at 10 to 20 uM preincubated for 1 hr followed by LPS stimulation measured after 6 hrs by ELISA; format: functional, cell-based
Staphylococcus aureus [25] = test: Potency index, ratio of melittin MIC to compound MIC for methicillin resistant Staphylococcus aureus CCARM 3089; format: functional
Pseudomonas aeruginosa [26] = test: Synergistic antibacterial activity against multidrug-resistant Pseudomonas aeruginosa CCARM 2095 after 72 hrs in presence of oxacillin by chequerboard assay; format: functional
Escherichia coli [27] = test: Antibacterial activity against Escherichia coli KCTC 1682 in presence of 2.5 mM CaCl2 after 24 hrs; format: functional; conditions: KCTC 1682, 24 h
Staphylococcus aureus [28] = test: Antibacterial activity against Staphylococcus aureus KCTC 1621 in presence of 1 mM MgCl2 after 24 hrs; format: functional; conditions: KCTC 1621, 24 h
Staphylococcus aureus [29] = test: Antibacterial activity against methicillin resistant Staphylococcus aureus CCARM 3090 after 24 hrs; format: functional; conditions: CCARM 3090, 24 h
Pseudomonas aeruginosa [30] = test: Antibacterial activity against multidrug-resistant Pseudomonas aeruginosa CCARM 2109 after 24 hrs; format: functional; conditions: CCARM 2109, 24 h
Pseudomonas aeruginosa [31] = test: Potency index, ratio of melittin MIC to compound MIC for multidrug-resistant Pseudomonas aeruginosa CCARM 2109; format: functional
Staphylococcus aureus [32] = test: Antibacterial activity against Staphylococcus aureus KCTC 1621 assessed as cell membrane disruption at 2 times MIC within 4 mins by Sytox Green dye based fluorescence spectrophotometer assay; format: functional, organism-based
Staphylococcus aureus [33] = test: Antibacterial activity against methicillin resistant Staphylococcus aureus CCARM 3095 after 24 hrs; format: functional; conditions: CCARM 3095, 24 h
[34] = tested on: Staphylococcus epidermidis; test: Antibacterial activity against Staphylococcus epidermidis KCTC 1917 after 24 hrs; format: functional; conditions: KCTC 1917, 24 h
RAW264.7 [35] = test: Anti-inflammatory activity in mouse RAW264.7 cells assessed as reduction in LPS-induced MCP-1 mRNA expression at 10 uM after 3 hrs by RT-PCR analysis; format: functional, cell-based
Escherichia coli [36] = test: Antibacterial activity against Escherichia coli KCTC 1682 in presence of 20% human serum after 24 hrs; format: functional; conditions: KCTC 1682, 24 h
Staphylococcus aureus [37] = test: Antibacterial activity against Staphylococcus aureus KCTC 1621 assessed as cytoplasmic membrane depolarization at 2 times MIC by disC3-5 dye based fluorescence assay; format: functional, organism-based
Enterococcus faecium [38] = test: Antibacterial activity against Vancomycin-resistant Enterococcus faecium ATCC 51559 after 24 hrs; format: functional; conditions: ATCC 51559, 24 h
Staphylococcus aureus [39] = test: Potency index, ratio of melittin MIC to compound MIC for methicillin resistant Staphylococcus aureus CCARM 3095; format: functional
RAW264.7 [40] = test: Anti-inflammatory activity in mouse RAW264.7 cells assessed as reduction in LPS-induced TNF-alpha production at 10 to 20 uM preincubated for 1 hr followed by LPS stimulation measured after 6 hrs by ELISA; format: functional, cell-based

CC[C@H](C)[C@H](NC(=O)[C@H](CC(C)C)NC(=O)[C@@H](CCCCN)NC(=O)[C@@H](NC(=O)[C@@H](NC(=O)[C@H](CCCNC(=N)N)NC(=O)[C@@H](N)CCCCN)[C@@H](C)CC)C(C)C)C(=O)N[C@@H](CC(C)C)C(=O)N[C@@H](CCCCN)C(=O)N[C@@H](Cc1c[nH]c2ccccc12)C(=O)N[C@@H](CC(C)C)C(=O)N[C@@H](CCCNC(=N)N)C(N)=O
2 µM: MIC (Staphylococcus aureus [5]) | MIC (Staphylococcus aureus [16])
Non-Toxic: Activity (NIH3T3) | Activity (RAW264.7 [23])
4 µM: MIC (Escherichia coli [2]) | MIC (Staphylococcus aureus [11]) | MIC (Escherichia coli [15]) | MIC (Escherichia coli [17]) | MIC (Escherichia coli [19]) | MIC (Staphylococcus aureus [29]) | MIC (Pseudomonas aeruginosa [30]) | MIC (Staphylococcus aureus [33]) | MIC [34] | MIC (Escherichia coli [36]) | MIC (Enterococcus faecium [38])
79 µM: MHC10 (Erythrocyte)
active: Activity (RAW264.7 [6]) | Activity (RAW264.7 [10]) | Activity (RAW264.7 [12]) | Activity (RAW264.7 [22]) | Activity (RAW264.7 [24]) | Activity (Staphylococcus aureus [32]) | Activity (RAW264.7 [35]) | Activity (Staphylococcus aureus [37]) | Activity (RAW264.7 [40])
8 µM: MIC (Pseudomonas aeruginosa [8]) | MIC (Bacillus subtilis) | MIC (Escherichia coli [27]) | MIC (Staphylococcus aureus [28])
0.5: fractional inhibitory concentration index (FICI) (Pseudomonas aeruginosa [20])
4 - 8: fold change (FC) (Pseudomonas aeruginosa [13])
1.02 M⁻¹: KSV (Lipid bilayer)
16 µM: MIC (Staphylococcus aureus [14])
2 - 8: Ratio (Staphylococcus aureus [21])
2 - 4: Ratio (Staphylococcus aureus [1]) | Ratio (Pseudomonas aeruginosa [3]) | Ratio (Staphylococcus aureus [4]) | Ratio (Enterococcus faecium [7]) | Ratio (Staphylococcus aureus [9]) | Ratio (Pseudomonas aeruginosa [18]) | Ratio (Staphylococcus aureus [25]) | Ratio (Pseudomonas aeruginosa [31]) | Ratio (Staphylococcus aureus [39])
0.375: fractional inhibitory concentration index (FICI) (Pseudomonas aeruginosa [26])
